The values that follow are results of earlier work, collected in patent US20060269596A1, “Controlled release compositions comprising an acylanilide” (priority 2005, published 2006).

The conditions of data set [1]: 37 C.

As to `CC(O)(CS(=O)(=O)c1ccc(F)cc1)C(=O)Nc1ccc(C#N)c(C(F)(F)F)c1` (racemic) [Bicalutamide], where the note is “oral”, the “absorption following oral administration” value is recorded as “well-absorbed”. Also, the “effect of co-administration with food on rate or extent of absorption” value (with food) is recorded as “no clinically significant effect”. For the same compound, in data set [1], the solubility in water is recorded as 5 mg per 1000 mL.
